In patent EP0918774B9, “ANDROGEN RECEPTOR MODULATOR COMPOUNDS AND METHODS” (LIGAND PHARMACEUTICALS INCORPORATED, priority 1996, dated 1997) one finds IC50 data, which are given here for one compound.

Each structure is given as a SMILES string.

For the assay, the target named is T1, PR (Homo sapiens, UniProt P06401).
T1 sequence (P06401 1-933): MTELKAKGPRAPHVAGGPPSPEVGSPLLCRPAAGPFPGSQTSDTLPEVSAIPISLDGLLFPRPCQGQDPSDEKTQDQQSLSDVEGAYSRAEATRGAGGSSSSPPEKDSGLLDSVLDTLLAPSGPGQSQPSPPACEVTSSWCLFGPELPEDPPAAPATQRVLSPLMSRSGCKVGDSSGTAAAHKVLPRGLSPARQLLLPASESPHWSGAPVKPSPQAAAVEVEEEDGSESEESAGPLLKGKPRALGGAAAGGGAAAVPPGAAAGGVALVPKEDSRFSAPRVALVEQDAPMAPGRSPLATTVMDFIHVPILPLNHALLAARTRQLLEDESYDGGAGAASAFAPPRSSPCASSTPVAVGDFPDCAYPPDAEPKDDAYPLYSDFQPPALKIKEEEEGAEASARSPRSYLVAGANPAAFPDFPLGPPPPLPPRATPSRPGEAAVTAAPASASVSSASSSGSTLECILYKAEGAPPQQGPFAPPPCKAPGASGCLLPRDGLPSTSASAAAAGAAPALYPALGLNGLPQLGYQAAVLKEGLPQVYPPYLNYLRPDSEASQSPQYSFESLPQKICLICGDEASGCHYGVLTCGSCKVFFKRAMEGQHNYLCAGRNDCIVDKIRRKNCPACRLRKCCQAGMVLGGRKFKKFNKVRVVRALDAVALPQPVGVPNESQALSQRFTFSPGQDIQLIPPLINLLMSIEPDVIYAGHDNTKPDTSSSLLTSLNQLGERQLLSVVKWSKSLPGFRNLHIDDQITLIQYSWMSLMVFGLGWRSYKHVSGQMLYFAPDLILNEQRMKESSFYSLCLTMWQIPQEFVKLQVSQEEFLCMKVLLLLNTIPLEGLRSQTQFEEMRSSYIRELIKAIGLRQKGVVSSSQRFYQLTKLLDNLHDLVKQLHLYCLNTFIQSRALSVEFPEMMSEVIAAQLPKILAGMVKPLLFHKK
As to the kind of experiment: cell-based.

In the case of `CC12CCCN1c1cc3nc(O)cc(C(F)(F)F)c3cc1CC2` (racemic) [Compound 101, (R/S)-6,7,7a,11-Tetrahydro-7a-methyl-4-trifluoromethyl-2-pyridono[5,6-g]pyrrolidino[1,2-a]quinoline], the IC50 – broadly, the concentration that gives 50% inhibition – is more than 10 µM.
